Earlier results in patent US20240423911A1, “EMULSION COMPOSITION” (AstaReal Co., Ltd., priority 2018, published 2024).

Columns and labels:
[1] = Takahashi et al. 2004

CC1=C(/C=C/C(C)=C/C=C/C(C)=C/C=C/C=C(C)/C=C/C=C(C)/C=C/C2=C(C)C(=O)C(O)CC2(C)C)C(C)(C)CC(O)C1=O (stereo not drawn) [Astaxanthin, 3,3′-dihydroxy-β,β-carotene-4,4′-dione]
mutagenicity [1]: no mutagenicity has been observed
antioxidative activity relative to vitamin E (higher than that of vitamin E): approximately 1000 times
antioxidative activity relative to β-carotene (higher than that of β-carotene): ~40 times
